Data as given in publication PMC11189555, “Aryl amino acetamides prevent Plasmodium falciparum ring development via targeting the lipid-transfer protein PfSTART1” (Nature Communications, 2024).
pEC50: −log10 of the molar value. “And” between values parts separate entries of the source, which are not always exact repeats. Equal values may be shown once. Read-outs that look alike come from different tables or passages of the source.

Tested on: 3D7 P. falciparum parasites
Experiment: Growth inhibition assay (72 h, LDH activity)
Type: cell-based, Plasmodium falciparum
Details: for Growth inhibition, (1 - av / DMSO) x 100: Fig 2B source data, per biological replicate; for inhibition at 0.123457 µM: conc 123.457 nM; for inhibition at 0.37037 µM: conc 370.37 nM; for inhibition at 1.11111 µM: conc 1111.11 nM; for inhibition at 3.33333 µM: conc 3333.33 nM
Description: Parasite growth assays with inhibitory compounds were performed as per[11] and are fully described in the Supplementary Information. […]
Growth inhibition assays. Synchronised ring-stage parasites (0.3-0.6% parasitemia, 2% haematocrit) were grown for 72 h in a serial-dilution of the compound under […]
and compound 4. Note that M-833 was first purchased from MolPort (MolPort -002-267-916) then made in-house at WEHI: the differences observed in EC50s across experiments are attributed to the different batches of M -833. For some experiments, 0, 0.25 or 2.5 mM of glucosamine (GlcN) was also added. Experiments were set up in technical duplicates or triplicates. Following a freeze -thaw cycle, lactate dehydrogenase (LDH) activity was assessed as an indicator of parasite growt h 5. 30 μL of parasite culture was incubated for 30 min in the dark with 75 μL Malstat mixture (0.1 M Tris pH 9.0, 20 g/L lactic acid, pH 7.5, 0.2% Triton-X100, 0.5 g/L acetylpyridine adenine dinucleotide (APAD, Sigma), 200 μg/mL nitroblue tetrazolium (NBT; Sigma), 1 μg/mL phenozine ethosulfate (PES; Sigma)). Absorbance was then measured at 650 nm, transformed using the formula below, plotted against the logarithm of the concentrations, and a non-linear regression (log(inhibitor) vs. response, variable slope) was calculated using GraphPad Prism to assess the half-inhibitory […]
Growth inhibition % = (1 − average(sample)− average(uRBC)) ∗ 100 […]
The DMSO samples were also used to assess growth of parasite in the presence of 0.25 and 2.5 mM GlcN (normalised by DMSO in 0 mM GlcN). […]

[1] = Plasmodium falciparum, 3D7, 3D7, 0 mM GlcN, read-out: Growth inhibition assay, NORMALISED
[2] = Plasmodium falciparum, 3D7, 3D7, 0.25 mM GlcN, read-out: Growth inhibition assay, NORMALISED

With `Cc1cc(Cl)c(S(=O)(=O)N2CCCC2)cc1OCC(=O)NC1CCCCC1` [M-833] the “Normalised to DMSO” value (3D7 replicate 1, M-833 0.3125 uM) was 31.7546, the “Normalised to DMSO” value (3D7 replicate 1, M-833 0.625 uM) was 15.6331 and the “Normalised to DMSO” value (3D7 replicate 1, M-833 1.25 uM) was 6.894. For the same compound, the “Normalised to DMSO” value (3D7 replicate 1, M-833 2.5 uM) was 4.18, the “Normalised to DMSO” value (3D7 replicate 1, M-833 5 uM) was 4.492 and the “Normalised to DMSO” value (3D7 replicate 1, M-833 10 uM) was 2.7005. For the same compound, the “Normalised to DMSO” value (3D7 replicate 2, M-833 0.0390625 uM (plate column as in replicate 1)) was 98.0943, the “Normalised to DMSO” value (3D7 replicate 2, M-833 0.078125 uM (plate column as in replicate 1)) was 69.2248 and the “Normalised to DMSO” value (3D7 replicate 2, M-833 0.15625 uM (plate column as in replicate 1)) was 42.9307. For the same compound, the “Normalised to DMSO” value (3D7 replicate 2, M-833 0.3125 uM (plate column as in replicate 1)) was 17.4092, the “Normalised to DMSO” value (3D7 replicate 2, M-833 0.625 uM (plate column as in replicate 1)) was 12.6706 and the “Normalised to DMSO” value (3D7 replicate 2, M-833 1.25 uM (plate column as in replicate 1)) was 9.0394. The “Normalised to DMSO” value (3D7 replicate 2, M-833 2.5 uM (plate column as in replicate 1)) was 8.2153, the “Normalised to DMSO” value (3D7 replicate 2, M-833 5 uM (plate column as in replicate 1)) was 8.679 and the “Normalised to DMSO” value (3D7 replicate 2, M-833 10 uM (plate column as in replicate 1)) was 8.859. For the same compound, the “Growth inhibition, (1 - av / DMSO) x 100” value (3D7, M-833 conc 0.00152416 (unit not given)) was -18.032% and -5.346% and 12.6336%, the “Growth inhibition, (1 - av / DMSO) x 100” value (3D7, M-833 conc 0.00457247 (unit not given)) was -25.7702% and -5.3748% and 10.1353% and the “Growth inhibition, (1 - av / DMSO) x 100” value (3D7, M-833 conc 0.0137174 (unit not given)) was -26.0091% and 2.611% and 15.3938%. The “Growth inhibition, (1 - av / DMSO) x 100” value (3D7, M-833 conc 0.0411523 (unit not given)) was 13.4703% and 15.2318% and 31.5623%, the “Growth inhibition, (1 - av / DMSO) x 100” value (3D7, M-833 conc 0.123457 (unit not given)) was 53.3795% and 44.2845% and 58.2697% and the “Growth inhibition, (1 - av / DMSO) x 100” value (3D7, M-833 conc 0.37037 (unit not given)) was 86.6253% and 82.9734% and 89.4611%. For the same compound, the “Growth inhibition, (1 - av / DMSO) x 100” value (3D7, M-833 conc 1.11111 (unit not given)) was 95.3188% and 95.9852%, the “Growth inhibition, (1 - av / DMSO) x 100” value (3D7, M-833 conc 3.33333 (unit not given)) was 96.9668% and 96.3144% and 96.0397% and the “Growth inhibition, (1 - av / DMSO) x 100” value (3D7, M-833 conc 10 (unit not given)) was 97.5639% and 97.303% and 96.0397%. For the same compound, the “Normalised to DMSO” value (M-833 0.0390625 uM, 3D7 replicate 3) was 105.125, the “Normalised to DMSO” value (M-833 0.078125 uM, 3D7 replicate 3) was 101.149 and the “Normalised to DMSO” value (M-833 0.15625 uM, 3D7 replicate 3) was 87.6289. For the same compound, the “Normalised to DMSO” value (M-833 0.3125 uM, 3D7 replicate 3) was 55.4639, the “Normalised to DMSO” value (M-833 0.625 uM, 3D7 replicate 3) was 35.4934 and the “Normalised to DMSO” value (M-833 1.25 uM, 3D7 replicate 3) was 26.4801. For the same compound, the “Normalised to DMSO” value (M-833 2.5 uM, 3D7 replicate 3) was 22.6804, the “Normalised to DMSO” value (M-833 5 uM, 3D7 replicate 3) was 16.5832 and the “Normalised to DMSO” value (M-833 10 uM, 3D7 replicate 3) was 21.9735. For the same compound, the inhibition at 0.0137174 µM (Plasmodium falciparum, 3D7, 3D7, 0 mM GlcN, conc 13.7174 nM, read-out: Growth inhibition assay, NORMALISED) was 20.6%, the inhibition at 0.0411523 µM (Plasmodium falciparum, 3D7, 3D7, 0 mM GlcN, conc 41.1523 nM, read-out: Growth inhibition assay, NORMALISED) was 44.4% and the inhibition at 0.123457 µM [1] was 79.5%. The inhibition at 0.37037 µM [1] was 90.2%, the inhibition at 1.11111 µM [1] was 91.3% and the inhibition at 3.33333 µM [1] was 93.7%. The inhibition at 10 µM (Plasmodium falciparum, 3D7, 3D7, 0 mM GlcN, conc 10000 nM, read-out: Growth inhibition assay, NORMALISED) was 94.5%, the inhibition at 0.123457 µM [2] was 77.6% and the inhibition at 0.37037 µM [2] was 91.4%. It also gave an inhibition at 1.11111 µM [2] of 95.5%, an inhibition at 3.33333 µM [2] of 94.5% and an inhibition at 10 µM (Plasmodium falciparum, 3D7, 3D7, 0.25 mM GlcN, conc 10000 nM, read-out: Growth inhibition assay, NORMALISED) of 92.9%. For the same compound, the inhibition at 0.0390625 µM (Plasmodium falciparum, 3D7, 3D7 replicate 1, M-833 0.0390625 uM) was 6.15%, the inhibition at 0.078125 µM (Plasmodium falciparum, 3D7, 3D7 replicate 1, M-833 0.078125 uM) was 21.8% and the inhibition at 0.15625 µM (Plasmodium falciparum, 3D7, 3D7 replicate 1, M-833 0.15625 uM) was 47%. The inhibition at 0.3125 µM (Plasmodium falciparum, 3D7, 3D7 replicate 1, M-833 0.3125 uM) was 68.2%, the inhibition at 0.625 µM (Plasmodium falciparum, 3D7, 3D7 replicate 1, M-833 0.625 uM) was 84.4% and the inhibition at 1.25 µM (Plasmodium falciparum, 3D7, 3D7 replicate 1, M-833 1.25 uM) was 93.1%. It also gave an inhibition at 2.5 µM (Plasmodium falciparum, 3D7, 3D7 replicate 1, M-833 2.5 uM) of 95.8%, an inhibition at 5 µM (Plasmodium falciparum, 3D7, 3D7 replicate 1, M-833 5 uM) of 95.5% and an inhibition at 10 µM (Plasmodium falciparum, 3D7, 3D7 replicate 1, M-833 10 uM, read-out: % Inhibition) of 97.3%. For the same compound, the pEC50 (Plasmodium falciparum, 3D7, 72 h, Fig 2B, 3D7, 72 h, n = 3, unit only in x-axis title, read-out: EC50 (95% confidence interval)) was 7.01, the pEC50 (Plasmodium falciparum, 3D7, 72 h, Fig 2D, 3D7, 72 h, n = 3, read-out: EC50 (95% confidence interval)) was 7.30 and the pEC50 (Plasmodium falciparum, 3D7, 72 h, Supplementary Table 1, 3D7, 72 h, read-out: EC50) was 6.81. For the same compound, the pEC50 (Plasmodium falciparum, 3D7, Fig 1B, 3D7, 10 µM to 0.04 µM M-833, n = 3, unit only on x-axis label, read-out: EC50 (95% confidence interval)) was 6.77, the pEC50 (Plasmodium falciparum, 3D7, Fig 3C, 3D7, 0 mM GlcN, n = 4, unit on plot axis, read-out: EC50 M-833 (95% confidence interval)) was 6.80 and the pEC50 (Plasmodium falciparum, 3D7, Fig 3C, 3D7, 0.25 mM GlcN, n = 4, unit on plot axis, read-out: EC50 M-833 (95% confidence interval)) was 6.80. The pEC50 (Plasmodium falciparum, 3D7, Fig 3C, 3D7, 2.5 mM GlcN, n = 4, unit on plot axis, read-out: EC50 M-833 (95% confidence interval)) was 6.93, the pEC50 (Plasmodium falciparum, 3D7, Fig 3F, 3D7, 0.25 mM GlcN, n = 3, read-out: EC50 M-833 (95% confidence interval)) was 7.26 and the pEC50 (Plasmodium falciparum, 3D7, Fig 3F, 3D7, 2.5 mM GlcN, n = 3, read-out: EC50 M-833 (95% confidence interval)) was 7.43. For the same compound, the pEC50 (Plasmodium falciparum, 3D7, Fig 4A, 3D7 parasites, read-out: Pf 3D7 EC50 (SD)) was 5.96, the inhibition at 0.0390625 µM (Plasmodium falciparum, 3D7, M-833 0.0390625 uM, 3D7 replicate 1) was 1.91% and the inhibition at 0.0390625 µM (Plasmodium falciparum, 3D7, M-833 0.0390625 uM, 3D7 replicate 3) was -5.13%. It also gave an inhibition at 0.078125 µM (Plasmodium falciparum, 3D7, M-833 0.078125 uM, 3D7 replicate 1) of 30.8%, an inhibition at 0.078125 µM (Plasmodium falciparum, 3D7, M-833 0.078125 uM, 3D7 replicate 3) of -1.15% and an inhibition at 0.15625 µM (Plasmodium falciparum, 3D7, M-833 0.15625 uM, 3D7 replicate 1) of 57.1%. It also gave an inhibition at 0.15625 µM (Plasmodium falciparum, 3D7, M-833 0.15625 uM, 3D7 replicate 3) of 12.4%, an inhibition at 0.3125 µM (Plasmodium falciparum, 3D7, M-833 0.3125 uM, 3D7 replicate 1) of 82.6% and an inhibition at 0.3125 µM (Plasmodium falciparum, 3D7, M-833 0.3125 uM, 3D7 replicate 3) of 44.5%. The inhibition at 0.625 µM (Plasmodium falciparum, 3D7, M-833 0.625 uM, 3D7 replicate 1) was 87.3%, the inhibition at 0.625 µM (Plasmodium falciparum, 3D7, M-833 0.625 uM, 3D7 replicate 3) was 64.5% and the inhibition at 1.25 µM (Plasmodium falciparum, 3D7, M-833 1.25 uM, 3D7 replicate 1) was 91%. The inhibition at 1.25 µM (Plasmodium falciparum, 3D7, M-833 1.25 uM, 3D7 replicate 3) was 73.5%, the inhibition at 2.5 µM (Plasmodium falciparum, 3D7, M-833 2.5 uM, 3D7 replicate 1) was 91.8% and the inhibition at 2.5 µM (Plasmodium falciparum, 3D7, M-833 2.5 uM, 3D7 replicate 3) was 77.3%. The inhibition at 5 µM (Plasmodium falciparum, 3D7, M-833 5 uM, 3D7 replicate 1) was 91.3%, the inhibition at 5 µM (Plasmodium falciparum, 3D7, M-833 5 uM, 3D7 replicate 3) was 83.4% and the inhibition at 10 µM (Plasmodium falciparum, 3D7, M-833 10 uM, 3D7 replicate 1, read-out: % Inhibition) was 91.1%. For the same compound, the inhibition at 10 µM (Plasmodium falciparum, 3D7, M-833 10 uM, 3D7 replicate 3, read-out: % Inhibition) was 78% and the “effect of GlcN addition on EC50” value (control 3D7) was “did not change the EC50”.
